From patent publication US5506115A, “Reagent and method for determining activity of herpes protease” (G. D. Searle & Co., priority 1994, dated 1996) come the findings set out here.

Where a SMILES comes first, the peptide text is derived from it. The star is where a group is joined. Dabcyl = CN(C)c1ccc(N=Nc2ccc(C(=O)*)cc2)cc1; EDANS = O=S(=O)(O)c1cccc2c(NCCN*)cccc12; GABA = NCCCC(=O)O

This assay addresses T1, CMV assemblin (Human cytomegalovirus, UniProt P16753).
T1 construct: a DNA construction encoding the protease domain of the UL 80 open reading frame; His6 (N); made in house; host or cells: E. coli
Kind of assay: Hydrolysis of fluorogenic substrate by CMV assemblin (fluorescence time course, FIG. 2). In kind it is biochemical. The note with it: 10 μM DE1, protease added; 340 nm excitation, 480 nm emission; within 30 minutes. As to the method: The fluorometric assay developed to incorporate the substrate compounds of the invention is a method for the determination of a herpesvirus protease and inhibitors of a herpesvirus protease, e.g. a CMV protease (also known as assemblin) encoded by UL 80, which comprises placing a known amount of the herpesvirus protease in the wells of a "Microlite 1"96 well plate (Dynatek Laboratories, Inc.), adding a known amount of the substrate at 22° C., measuring the change in fluorescence with time and determining the molar velocity of the herpesvirus protease by comparing against a standard curve which relates changes in fluorescent intensity to changes in concentration of product. Potential inhibitors of the protease action can be added to the well to observe their effect on the protease cleavage activity.
The arrow indicates the addition of protease to 10 μM DE1 [SEQ ID NO:34]. […] Fluorescence magnitude is plotted versus time.
An assay was developed for screening potential herpesvirus protease inhibitors utilizing the substrates of the invention. Recombinant HCMV protease was purified from E. coli expressing a DNA construction encoding the protease domain of the UL 80 open reading frame of human cytomegalovirus strain AD169. The construction also encoded six additional histidine residues at the amino terminus of the protease. […]

T1 sequence (P16753 1-256): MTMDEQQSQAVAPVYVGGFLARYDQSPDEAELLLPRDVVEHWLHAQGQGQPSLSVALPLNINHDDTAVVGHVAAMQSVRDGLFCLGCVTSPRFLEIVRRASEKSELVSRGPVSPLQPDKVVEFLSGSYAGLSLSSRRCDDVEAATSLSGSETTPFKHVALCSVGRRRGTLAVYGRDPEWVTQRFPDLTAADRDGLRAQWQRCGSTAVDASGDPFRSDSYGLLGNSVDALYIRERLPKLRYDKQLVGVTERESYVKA

Take `CC(C)C[C@H](NC(=O)[C@H](CCCNC(=N)N)NC(=O)[C@H](C)NC(=O)[C@H](CO)NC(=O)[C@H](C)NC(=O)[C@H](CC(N)=O)NC(=O)[C@@H](NC(=O)[C@@H](NC(=O)CCCNC(=O)c1ccc(N=Nc2ccc(N(C)C)cc2)cc1)C(C)C)C(C)C)C(=O)NCCNc1cccc2c(S(=O)(=O)O)cccc12` [DE1, DABCYL-γ-Abu-Val-Val-Asn-Ala-Ser-Ala-Arg-Leu-EDANS] ({Dabcyl-GABA}-VVNASARL-{EDANS}): the “increase in fluorescence emission on cleavage of the substrate” value is recorded as 10 fold.
